Test results reported in ChEMBL document CHEMBL5154908, “Design, Synthesis, and Biological Characterization of Inhaled p38α/β MAPK Inhibitors for the Treatment of Lung Inflammatory Diseases” (J Med Chem, 2022).
In brackets after ≈: the same amount, converted by molar mass.

Key:
Rattus norvegicus [1] = test: Antiinflammatory activity against LPS-induced Sprague-Dawley rat inflammatory model assessed as inhibition of neutrophil cells release in BALF at 0.3 mg/kg, IT preincubated for 2 hrs followed by LPS-stimulation and measured after 4 hrs relative to control; format: functional; set-up: scale not given: the % may be the effect or the level left; conditions: time 6 hrs
Rattus norvegicus [2] = test: Antiinflammatory activity against LPS-induced Sprague-Dawley rat inflammatory model assessed as inhibition of neutrophil cells release in BALF at 0.1 mg/kg, IT preincubated for 2 hrs followed by LPS-stimulation and measured after 4 hrs relative to control; format: functional; set-up: scale not given: the % may be the effect or the level left; conditions: time 6 hrs
[3] = Cmax in Sprague-Dawley rat plasma at 0.3 mg/kg, IT measured after 0.8 hrs by LC/MS/MS analysis; format: ADME, organism-based; set-up: time 0.8 hrs, dose 0.3 mg/kg, route it
[4] = target: T1, Mitogen-activated protein kinase 13 (Homo sapiens, UniProt O15264); test: Inhibition of recombinant human full length His-tagged p38delta expressed in baculovirus expression system preincubated for 2 hrs followed by ATP addition and measured after 1 hr by Alpha screen assay
T1 sequence (O15264 whole entry): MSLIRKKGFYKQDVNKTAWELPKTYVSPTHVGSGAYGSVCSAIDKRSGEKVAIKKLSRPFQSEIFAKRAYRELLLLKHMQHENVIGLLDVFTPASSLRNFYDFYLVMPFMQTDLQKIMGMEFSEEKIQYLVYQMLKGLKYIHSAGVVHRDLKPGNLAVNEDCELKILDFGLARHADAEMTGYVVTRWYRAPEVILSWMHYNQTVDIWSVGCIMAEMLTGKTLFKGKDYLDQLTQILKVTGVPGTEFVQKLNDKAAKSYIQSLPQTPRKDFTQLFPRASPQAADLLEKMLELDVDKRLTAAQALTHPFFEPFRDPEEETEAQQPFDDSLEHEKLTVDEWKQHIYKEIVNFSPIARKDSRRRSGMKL

[5] = Drug uptake in Sprague-Dawley rat lung homogenate at 0.03 mg/kg, IT measured after 24 hrs by LC/MS/MS analysis; format: ADME, organism-based; conditions: in vivo, other
[6] = target: T2, Mitogen-activated protein kinase 12 (Homo sapiens, UniProt P53778); test: Inhibition of recombinant human full length His-tagged p38gamma expressed in baculovirus expression system preincubated for 2 hrs followed by ATP addition and measured after 1 hr by Alpha screen assay
T2 sequence (P53778 whole entry): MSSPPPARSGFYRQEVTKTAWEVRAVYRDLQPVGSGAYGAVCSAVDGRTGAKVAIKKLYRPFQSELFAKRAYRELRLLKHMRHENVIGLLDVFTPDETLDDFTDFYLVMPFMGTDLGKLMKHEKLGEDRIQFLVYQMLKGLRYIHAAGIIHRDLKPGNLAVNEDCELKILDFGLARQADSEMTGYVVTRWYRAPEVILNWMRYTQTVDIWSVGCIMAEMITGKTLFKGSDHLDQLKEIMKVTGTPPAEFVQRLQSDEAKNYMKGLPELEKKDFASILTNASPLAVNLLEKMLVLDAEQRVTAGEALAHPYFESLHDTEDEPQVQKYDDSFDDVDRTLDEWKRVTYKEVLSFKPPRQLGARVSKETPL

[7] = target: T3, Mitogen-activated protein kinase 14 (Homo sapiens, UniProt Q16539); test: Displacement of SKF-86002 from human inactivated p38alpha assessed as dissociation half life incubated for 2 hrs by fluorescence based analysis
[8] = Drug uptake in Sprague-Dawley rat lung homogenate at 0.03 mg/kg, IT measured after 7 hrs by LC/MS/MS analysis; format: ADME, organism-based; conditions: in vivo, other
[9] = Protein binding in rat plasma at 10 uM incubated for 4 hrs by LC/MS/MS analysis; format: ADME, cell-free; conditions: read-out: PPB (converted)
[10] = Permeability across apical to basolateral side in human Caco-2 cells at 10 uM measured after 60 mins by LC/MS/MS analysis; format: ADME, cell-based; conditions: read-out: permeability
[11] = Drug concentration in Sprague-Dawley rat lung homogenate at 0.3 mg/kg, IT measured after 24 hrs by LC/MS/MS analysis; format: ADME, organism-based; conditions: read-out: Ct
[12] = target: T3, Mitogen-activated protein kinase 14; test: Inhibition of human recombinant full length GST-tagged p38alpha expressed in Escherichia coli preincubated for 2 hrs followed by ATP addition and measured after 1 hr by Alpha screen assay
[13] = Efflux ratio of permeability in human Caco-2 cells at 10 uM measured after 60 mins by LC-MS/MS analysis; format: ADME, cell-based
[14] = Cmax in Sprague-Dawley rat lung homogenate at 0.3 mg/kg, IT measured after 0.8 hrs by LC/MS/MS analysis; format: ADME, organism-based; set-up: time 0.8 hrs, dose 0.3 mg/kg, route it
[15] = target: Mitogen-activated protein kinase 11 (Homo sapiens, UniProt Q15759); test: Inhibition of recombinant human full length His-tagged p38beta expressed in baculovirus expression system preincubated for 2 hrs followed by ATP addition and measured after 1 hr by Alpha screen assay
[16] = Solubility of the compound at >=1 mg/ml measured after 30 mins by HPLC analysis; format: physicochemical
[17] = Protein binding in rat lung homogenate at 10 uM incubated for 4 hrs by LC/MS/MS analysis; format: ADME, tissue-based; conditions: read-out: PB (converted)
[18] = Selectivity index, ratio of drug concentration in Sprague-Dawley rat lung homogenate to IC50 for human p38alpha; format: tissue-based; conditions: tissue homogenate
[19] = Inhibition of LPS-stimulated TNFalpha release in human PBMC cells preincubated for 1 hr followed by LPS stimulation and measured after 18 hrs; format: functional, cell-based
Rattus norvegicus [20] = test: Antiinflammatory activity against LPS-induced Sprague-Dawley rat inflammatory model assessed as inhibition of neutrophil cells release in BALF at 0.3 mg/kg, IT incubated for 9 hrs followed by LPS-stimulation relative to control; format: functional
[21] = target: T3, Mitogen-activated protein kinase 14; test: Binding affinity to biotinylated P38alpha assessed as dissociation half life by SPR analysis
[22] = target: Citron Rho-interacting kinase (Homo sapiens) (UniProt O14578); test: Inhibition of human CIT at 100 nM by KINOMEscan assay relative to control
[23] = target: T4, Discoidin domain-containing receptor 2 (Homo sapiens) (UniProt Q16832); test: Inhibition of human DDR2 at 100 nM by KINOMEscan assay relative to control
T4 sequence (whole entry): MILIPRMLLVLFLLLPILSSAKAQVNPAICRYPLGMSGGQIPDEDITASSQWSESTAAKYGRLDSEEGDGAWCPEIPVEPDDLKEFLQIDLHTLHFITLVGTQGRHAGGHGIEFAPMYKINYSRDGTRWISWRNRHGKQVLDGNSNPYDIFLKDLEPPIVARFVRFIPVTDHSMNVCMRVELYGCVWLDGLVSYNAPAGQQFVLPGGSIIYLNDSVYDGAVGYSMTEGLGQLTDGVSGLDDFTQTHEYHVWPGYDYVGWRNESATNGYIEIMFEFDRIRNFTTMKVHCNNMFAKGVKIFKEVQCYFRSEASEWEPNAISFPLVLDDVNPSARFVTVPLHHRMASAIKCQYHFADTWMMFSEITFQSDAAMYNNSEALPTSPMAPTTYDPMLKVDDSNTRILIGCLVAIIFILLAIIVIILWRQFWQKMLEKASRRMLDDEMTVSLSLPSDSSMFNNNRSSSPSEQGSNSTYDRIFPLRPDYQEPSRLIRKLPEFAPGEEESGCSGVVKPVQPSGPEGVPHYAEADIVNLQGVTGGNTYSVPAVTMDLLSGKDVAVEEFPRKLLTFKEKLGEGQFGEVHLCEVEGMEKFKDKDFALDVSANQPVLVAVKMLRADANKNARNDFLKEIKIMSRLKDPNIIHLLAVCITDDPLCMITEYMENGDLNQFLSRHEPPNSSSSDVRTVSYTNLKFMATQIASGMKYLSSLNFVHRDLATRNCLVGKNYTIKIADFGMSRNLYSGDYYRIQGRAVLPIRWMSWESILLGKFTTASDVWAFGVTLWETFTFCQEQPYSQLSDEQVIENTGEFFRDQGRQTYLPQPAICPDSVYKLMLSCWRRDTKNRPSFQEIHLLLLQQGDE

[24] = target: TRAF2 and NCK-interacting protein kinase (Homo sapiens) (UniProt Q9UKE5); test: Inhibition of TNIK (unknown origin) at 100 nM by KINOMEscan assay relative to control
[25] = target: Ephrin type-A receptor 4 (Homo sapiens) (UniProt P54764); test: Inhibition of EphA4 (unknown origin) at 1 uM relative to control
[26] = target: Epithelial discoidin domain-containing receptor 1 (Homo sapiens) (UniProt Q08345); test: Inhibition of human DDR1 at 100 nM by KINOMEscan assay relative to control
[27] = Protein binding in human plasma at 10 uM incubated for 4 hrs by LC/MS/MS analysis; format: ADME, cell-free; conditions: read-out: PPB
Rattus norvegicus [28] = test: Antiinflammatory activity against LPS-induced Sprague-Dawley rat inflammatory model assessed as inhibition of neutrophil cells release in BALF at 1 mg/kg, IT measured after 24 hrs relative to control; format: functional
[29] = Terminal half life in Sprague-Dawley rat lung homogenate at 0.03 mg/kg, IT measured after 24 hrs by LC/MS/MS analysis; format: ADME, organism-based; conditions: read-out: beta t1/2
[30] = Cmax in Sprague-Dawley rat plasma at 0.03 mg/kg, IT measured after 0.8 hrs by LC/MS/MS analysis; format: ADME, organism-based; set-up: dose 0.03 mg/kg, time 0.8 hrs, route it
[31] = Drug concentration in Sprague-Dawley rat lung homogenate at 1 mg/kg, IT measured after 24 hrs by LC/MS/MS analysis; format: ADME, organism-based; conditions: read-out: Ct
Rattus norvegicus [32] = test: Antiinflammatory activity against LPS-induced Sprague-Dawley rat inflammatory model assessed as inhibition of neutrophil cells release in BALF at 1 mg/kg, IT measured after 1 hr relative to control; format: functional
[33] = Cmax in Sprague-Dawley rat lung homogenate at 0.03 mg/kg, IT measured after 0.8 hrs by LC/MS/MS analysis; format: ADME, organism-based; set-up: time 0.8 hrs, dose 0.03 mg/kg, route it
[34] = Metabolic stability in rat liver microsomes assessed as half life at 1 uM preincubated for 10 mins followed by NADPH addition and measured after 30 mins by LC/MS/MS analysis; format: ADME, Microsome; conditions: time 40 min

T3 sequence (Q16539 whole entry): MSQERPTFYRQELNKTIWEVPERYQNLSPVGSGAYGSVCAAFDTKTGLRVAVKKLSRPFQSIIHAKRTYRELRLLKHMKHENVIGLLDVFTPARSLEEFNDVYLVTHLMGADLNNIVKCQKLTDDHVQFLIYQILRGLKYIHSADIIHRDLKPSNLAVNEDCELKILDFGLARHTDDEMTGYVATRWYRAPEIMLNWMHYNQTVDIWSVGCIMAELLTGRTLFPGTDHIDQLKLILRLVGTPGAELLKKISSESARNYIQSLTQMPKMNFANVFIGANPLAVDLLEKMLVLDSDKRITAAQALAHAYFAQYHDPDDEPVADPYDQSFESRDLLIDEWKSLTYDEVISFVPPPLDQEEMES
Sequence of Mitogen-activated protein kinase 11 (Q15759 whole entry): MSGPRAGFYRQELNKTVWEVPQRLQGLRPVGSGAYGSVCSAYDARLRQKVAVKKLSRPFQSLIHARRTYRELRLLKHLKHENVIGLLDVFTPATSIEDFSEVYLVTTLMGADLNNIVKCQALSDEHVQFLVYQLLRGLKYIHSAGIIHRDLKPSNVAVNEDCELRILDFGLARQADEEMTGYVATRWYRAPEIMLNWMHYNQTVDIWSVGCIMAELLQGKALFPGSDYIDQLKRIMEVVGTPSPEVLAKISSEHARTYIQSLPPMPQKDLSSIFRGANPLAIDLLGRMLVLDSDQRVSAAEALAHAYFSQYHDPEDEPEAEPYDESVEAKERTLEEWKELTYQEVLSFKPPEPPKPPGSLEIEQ
Sequence of Epithelial discoidin domain-containing receptor 1 (Homo sapiens) (Q08345 whole entry, the tested form may be a part): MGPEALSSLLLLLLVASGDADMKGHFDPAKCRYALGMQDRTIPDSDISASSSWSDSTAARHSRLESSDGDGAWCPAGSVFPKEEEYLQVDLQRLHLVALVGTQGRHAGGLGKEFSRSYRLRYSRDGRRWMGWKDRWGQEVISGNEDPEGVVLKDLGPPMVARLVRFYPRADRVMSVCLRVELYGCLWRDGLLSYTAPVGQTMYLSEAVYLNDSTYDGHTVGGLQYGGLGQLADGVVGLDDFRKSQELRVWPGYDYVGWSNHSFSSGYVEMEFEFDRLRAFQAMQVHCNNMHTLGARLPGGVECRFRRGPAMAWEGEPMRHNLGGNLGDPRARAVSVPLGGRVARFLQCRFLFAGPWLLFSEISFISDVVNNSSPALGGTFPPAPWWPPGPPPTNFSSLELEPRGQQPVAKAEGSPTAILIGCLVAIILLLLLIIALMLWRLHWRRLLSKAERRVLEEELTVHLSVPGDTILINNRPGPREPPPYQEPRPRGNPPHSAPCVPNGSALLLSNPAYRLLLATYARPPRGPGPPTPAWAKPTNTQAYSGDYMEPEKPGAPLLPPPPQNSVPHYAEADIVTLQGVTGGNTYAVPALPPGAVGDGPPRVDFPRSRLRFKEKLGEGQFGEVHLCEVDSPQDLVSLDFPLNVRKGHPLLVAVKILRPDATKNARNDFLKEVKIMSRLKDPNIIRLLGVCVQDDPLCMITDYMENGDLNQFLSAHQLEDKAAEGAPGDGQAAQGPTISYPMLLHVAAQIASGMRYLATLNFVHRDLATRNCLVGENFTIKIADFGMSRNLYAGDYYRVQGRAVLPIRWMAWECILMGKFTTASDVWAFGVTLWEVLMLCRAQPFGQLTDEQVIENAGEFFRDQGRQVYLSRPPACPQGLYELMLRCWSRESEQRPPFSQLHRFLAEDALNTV
Sequence of Ephrin type-A receptor 4 (Homo sapiens) (P54764 whole entry, the tested form may be a part): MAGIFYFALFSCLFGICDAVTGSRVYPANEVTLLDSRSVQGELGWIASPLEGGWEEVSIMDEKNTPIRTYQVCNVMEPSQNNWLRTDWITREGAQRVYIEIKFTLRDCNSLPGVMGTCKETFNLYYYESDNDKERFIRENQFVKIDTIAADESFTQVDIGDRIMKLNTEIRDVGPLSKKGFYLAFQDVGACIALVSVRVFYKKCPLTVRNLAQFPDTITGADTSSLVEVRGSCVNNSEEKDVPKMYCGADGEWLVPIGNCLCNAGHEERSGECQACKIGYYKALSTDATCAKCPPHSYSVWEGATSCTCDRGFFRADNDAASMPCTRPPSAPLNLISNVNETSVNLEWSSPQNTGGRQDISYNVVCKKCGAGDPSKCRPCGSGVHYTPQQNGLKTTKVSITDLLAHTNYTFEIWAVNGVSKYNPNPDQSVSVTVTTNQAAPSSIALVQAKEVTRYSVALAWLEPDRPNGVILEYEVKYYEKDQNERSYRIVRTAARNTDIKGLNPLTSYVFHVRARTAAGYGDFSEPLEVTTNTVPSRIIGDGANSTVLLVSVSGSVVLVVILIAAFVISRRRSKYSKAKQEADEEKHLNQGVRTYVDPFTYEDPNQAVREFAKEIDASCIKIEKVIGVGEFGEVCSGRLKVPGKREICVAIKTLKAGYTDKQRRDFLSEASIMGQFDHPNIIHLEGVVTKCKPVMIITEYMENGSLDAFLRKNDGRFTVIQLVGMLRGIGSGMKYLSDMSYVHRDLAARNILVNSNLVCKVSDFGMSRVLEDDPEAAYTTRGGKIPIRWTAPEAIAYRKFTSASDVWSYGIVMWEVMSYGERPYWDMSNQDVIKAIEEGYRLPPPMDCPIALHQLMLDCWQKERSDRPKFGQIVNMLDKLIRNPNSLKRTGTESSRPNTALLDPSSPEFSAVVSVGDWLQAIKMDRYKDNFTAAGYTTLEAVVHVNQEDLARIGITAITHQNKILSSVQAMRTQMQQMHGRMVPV
Sequence of TRAF2 and NCK-interacting protein kinase (Homo sapiens) (Q9UKE5 whole entry, looked up): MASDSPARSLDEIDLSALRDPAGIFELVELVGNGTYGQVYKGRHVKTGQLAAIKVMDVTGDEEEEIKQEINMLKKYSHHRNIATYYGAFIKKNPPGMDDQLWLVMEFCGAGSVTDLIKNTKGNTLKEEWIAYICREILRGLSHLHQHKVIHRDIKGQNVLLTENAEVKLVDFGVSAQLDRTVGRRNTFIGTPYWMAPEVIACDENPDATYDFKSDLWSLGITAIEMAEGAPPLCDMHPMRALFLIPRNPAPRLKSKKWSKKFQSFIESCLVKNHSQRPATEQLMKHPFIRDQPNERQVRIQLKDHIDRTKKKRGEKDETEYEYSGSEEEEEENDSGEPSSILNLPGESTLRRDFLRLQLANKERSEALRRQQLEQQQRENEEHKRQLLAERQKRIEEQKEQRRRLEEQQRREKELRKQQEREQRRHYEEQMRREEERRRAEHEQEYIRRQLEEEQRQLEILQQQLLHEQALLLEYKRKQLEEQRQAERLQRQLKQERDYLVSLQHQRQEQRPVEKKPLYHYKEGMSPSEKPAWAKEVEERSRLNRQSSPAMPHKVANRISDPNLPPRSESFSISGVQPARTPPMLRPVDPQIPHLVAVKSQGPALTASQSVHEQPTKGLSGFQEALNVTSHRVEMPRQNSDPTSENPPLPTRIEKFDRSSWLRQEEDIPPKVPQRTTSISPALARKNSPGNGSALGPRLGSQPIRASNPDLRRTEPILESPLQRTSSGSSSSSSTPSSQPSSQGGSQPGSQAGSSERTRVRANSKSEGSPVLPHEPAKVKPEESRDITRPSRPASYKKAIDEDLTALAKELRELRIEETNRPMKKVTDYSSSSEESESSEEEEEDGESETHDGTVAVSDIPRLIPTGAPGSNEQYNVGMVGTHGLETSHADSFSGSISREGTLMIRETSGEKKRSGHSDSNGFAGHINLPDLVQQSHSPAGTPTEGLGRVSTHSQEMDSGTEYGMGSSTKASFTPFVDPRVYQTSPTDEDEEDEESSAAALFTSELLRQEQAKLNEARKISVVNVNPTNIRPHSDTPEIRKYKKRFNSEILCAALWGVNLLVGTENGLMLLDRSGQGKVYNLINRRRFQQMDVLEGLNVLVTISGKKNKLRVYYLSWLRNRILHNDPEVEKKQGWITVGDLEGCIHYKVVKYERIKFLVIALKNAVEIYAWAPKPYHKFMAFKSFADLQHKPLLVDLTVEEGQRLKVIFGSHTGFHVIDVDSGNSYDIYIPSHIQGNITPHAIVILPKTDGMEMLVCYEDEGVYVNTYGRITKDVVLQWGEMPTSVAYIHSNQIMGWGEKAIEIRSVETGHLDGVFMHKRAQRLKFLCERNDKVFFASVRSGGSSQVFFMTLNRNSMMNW

Structure (SMILES)	IC50 [4] [nM]	Drug uptake [5] [%]	IC50 [6] [nM]	T1/2 [7] [h]	Drug uptake [8] [%]	fraction unbound at 4 h, 10 µM [9]	Papp A→B at 1 h, 10 µM [10] [nm/s]	IC50 [12] [nM]	IC50 [15] [nM]	solubility at 0.5 h [16] [mg/mL]	fraction unbound at 4 h, 10 µM [17]	Ratio [18]	IC50 [19] [nM]	also measured
C[C@H]1CCCCN1c1nnc2ccc(O[C@@H]3CC[C@H](NC(=O)Nc4cc(C(C)(C)C)nn4-c4cnn(CCN(C)C)c4)c4ccccc43)cn12.Cl	–	–	–	–	–	–	–	–	–	–	–	–	–	Activity (Rattus norvegicus [1]): 49%; Activity (Rattus norvegicus [2]): 55%
C[C@@H]1CCC[C@H](C)N1c1nnc2ccc(O[C@@H]3CC[C@H](NC(=O)Nc4cc(C(C)(C)C)nn4-c4cnn(CCN(C)C)c4)c4ccccc43)cn12	> 10000	5.4	805	> 16	10	0.004	19	0.05	0.1	0.62 (≈ 893 µM)	0.002	183	0.5	Cmax [3]: 0.03 µM; concentration at 24 h [11]: 4.58 µM; efflux ratio at 1 h, 10 µM [13]: > 2.5; Cmax [14]: 6.36 µM; inhibition in vivo at 0.3 mg/kg (Rattus norvegicus [20]): 43%
C[C@H]1CCCCN1c1nnc2ccc(O[C@@H]3CC[C@H](NC(=O)Nc4cc(C(C)(C)C)nn4-c4cnn(CCN(C)C)c4)c4ccccc43)cn12	–	–	–	> 16	–	–	–	–	–	–	–	–	–	T1/2 [21]: 51 h; inhibition [22]: > 50%; inhibition [23]: > 50%; inhibition [24]: > 50%; inhibition [25]: 82%; inhibition [26]: > 50%
Cc1ccc(-n2nc(C(C)(C)C)cc2NC(=O)N[C@H]2CC[C@@H](Oc3ccc4nnc(C(C)C)n4c3)c3ccccc32)cc1	> 5000	9.6	164	> 16	8.4	< 0.001	28	0.2	0.2	0.01 (≈ 17.3 µM)	0.004	149	0.1	fraction unbound at 4 h, 10 µM [27]: 0.001; inhibition in vivo at 1 mg/kg (Rattus norvegicus [28]): -3%; half-life [29]: > 24 h; Cmax [30]: 0.09 µM; concentration at 24 h [31]: 29.8 µM; inhibition in vivo at 1 mg/kg (Rattus norvegicus [32]): 50%; Cmax [33]: 1.08 µM; half-life at 1 µM [34]: < 0.167 h
